{"source": "paper PMC7816587", "about": "(Food and Chemical Toxicology, 2021)", "test": "Pharmacokinetic interactions between QPD and lopinavir in rats", "assay_type": "in vivo", "conditions": "male, Sprague-Dawley, rat, plasma, po, 160 mg/kg"}
{"smiles": "Cc1cccc(C)c1OCC(=O)N[C@@H](Cc1ccccc1)[C@@H](O)C[C@H](Cc1ccccc1)NC(=O)[C@H](C(C)C)N1CCCNC1=O", "note": "[lopinavir]", "values": [{"measurement": "Tmax", "value": 8, "unit": "h"}, {"measurement": "AUC(0-inf)", "setting": "AUC(0-inf) of lopinavir, rats, water + lopinavir 160 mg/kg i.g. (control group)", "value": 6090, "unit": "ng·h/mL"}, {"measurement": "half-life", "setting": "t1/2 of lopinavir, rats, water + lopinavir 160 mg/kg i.g. (control group)", "value": 1.9, "unit": "h"}]}
